From ChEMBL document CHEMBL1909046, “DrugMatrix in vitro pharmacology data”

Assays:
[1] = DRUGMATRIX: Glutamate, NMDA, Phencyclidine radioligand binding (ligand: [3H] TCP); assay type: cell membranes, Rattus norvegicus, Wistar, Cerebral cortex, Membrane; settings: Not Active = under 50% inhibition at 10 µM
Cytochrome P450 1A2 = molecular target: T1, Cytochrome P450 1A2 (Homo sapiens, UniProt P05177); settings: bti-tn-5b1-4; further: in other assays of this panel Not Active means under 50% inhibition at 10 µM
T1 sequence (P05177 whole entry): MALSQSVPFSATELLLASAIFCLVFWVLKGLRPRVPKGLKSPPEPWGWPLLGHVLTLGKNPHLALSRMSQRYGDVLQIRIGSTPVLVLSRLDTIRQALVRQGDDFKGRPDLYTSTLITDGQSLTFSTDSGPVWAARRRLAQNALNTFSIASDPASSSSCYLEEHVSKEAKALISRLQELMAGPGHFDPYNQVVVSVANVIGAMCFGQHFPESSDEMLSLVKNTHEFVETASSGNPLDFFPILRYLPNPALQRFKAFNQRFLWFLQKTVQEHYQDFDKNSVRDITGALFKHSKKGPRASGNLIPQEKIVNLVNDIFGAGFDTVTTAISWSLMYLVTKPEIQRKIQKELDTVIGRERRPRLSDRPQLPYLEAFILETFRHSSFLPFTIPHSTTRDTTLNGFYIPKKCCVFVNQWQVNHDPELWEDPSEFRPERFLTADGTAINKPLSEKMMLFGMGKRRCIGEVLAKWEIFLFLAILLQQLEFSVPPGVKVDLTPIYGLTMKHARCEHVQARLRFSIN

[2] = DRUGMATRIX: Phorbol Ester radioligand binding (ligand: [3H] PDBu); assay type: cell membranes, Mus musculus, ICR, Brain, Membrane; settings: Not Active = under 50% inhibition at 10 µM
Adenosine receptor A1 = molecular target: T2, Adenosine receptor A1 (Homo sapiens, UniProt P30542); assay type: cell membranes, CHO, Membrane; settings: cho;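 further: radioligand binding assay at the adenosine A1 receptor, with DPCPX serving as the labelled ligand; in other assays of this panel Not Active means under 50% inhibition at 10 µM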
T2 sequence (P30542 whole entry): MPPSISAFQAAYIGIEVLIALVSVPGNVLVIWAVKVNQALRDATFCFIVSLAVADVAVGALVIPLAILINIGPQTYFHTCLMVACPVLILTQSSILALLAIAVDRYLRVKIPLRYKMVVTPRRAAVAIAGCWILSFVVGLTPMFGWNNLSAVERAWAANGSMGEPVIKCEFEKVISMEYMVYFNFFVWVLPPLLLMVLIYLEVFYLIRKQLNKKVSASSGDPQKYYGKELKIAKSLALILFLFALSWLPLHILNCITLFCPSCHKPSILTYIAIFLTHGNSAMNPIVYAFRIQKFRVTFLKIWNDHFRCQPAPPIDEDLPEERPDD

Vasopressin V1a receptor = Vasopressin V1a receptor (Homo sapiens, UniProt P37288); assay type: cell membranes, Membrane; settings: hek293; further: in other assays of this panel Not Active means under 50% inhibition at 10 µM
Vasopressin V1a receptor, sequence (P37288 whole entry): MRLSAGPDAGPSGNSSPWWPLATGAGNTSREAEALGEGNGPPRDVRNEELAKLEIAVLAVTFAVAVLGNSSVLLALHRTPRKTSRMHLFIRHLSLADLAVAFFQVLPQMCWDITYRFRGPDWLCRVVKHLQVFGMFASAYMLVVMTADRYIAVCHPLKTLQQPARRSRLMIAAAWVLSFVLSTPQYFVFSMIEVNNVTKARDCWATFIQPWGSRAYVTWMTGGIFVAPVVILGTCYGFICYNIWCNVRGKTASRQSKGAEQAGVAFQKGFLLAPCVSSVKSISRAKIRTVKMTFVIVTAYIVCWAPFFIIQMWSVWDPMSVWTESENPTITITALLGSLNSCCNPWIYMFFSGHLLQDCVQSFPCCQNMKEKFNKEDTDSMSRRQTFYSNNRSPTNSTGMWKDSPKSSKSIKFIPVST

Estrogen receptor = molecular target: T3, Estrogen receptor (Homo sapiens, UniProt P03372); settings: sf9; further: in other assays of this panel Not Active means under 50% inhibition at 10 µM
T3 sequence (P03372 whole entry): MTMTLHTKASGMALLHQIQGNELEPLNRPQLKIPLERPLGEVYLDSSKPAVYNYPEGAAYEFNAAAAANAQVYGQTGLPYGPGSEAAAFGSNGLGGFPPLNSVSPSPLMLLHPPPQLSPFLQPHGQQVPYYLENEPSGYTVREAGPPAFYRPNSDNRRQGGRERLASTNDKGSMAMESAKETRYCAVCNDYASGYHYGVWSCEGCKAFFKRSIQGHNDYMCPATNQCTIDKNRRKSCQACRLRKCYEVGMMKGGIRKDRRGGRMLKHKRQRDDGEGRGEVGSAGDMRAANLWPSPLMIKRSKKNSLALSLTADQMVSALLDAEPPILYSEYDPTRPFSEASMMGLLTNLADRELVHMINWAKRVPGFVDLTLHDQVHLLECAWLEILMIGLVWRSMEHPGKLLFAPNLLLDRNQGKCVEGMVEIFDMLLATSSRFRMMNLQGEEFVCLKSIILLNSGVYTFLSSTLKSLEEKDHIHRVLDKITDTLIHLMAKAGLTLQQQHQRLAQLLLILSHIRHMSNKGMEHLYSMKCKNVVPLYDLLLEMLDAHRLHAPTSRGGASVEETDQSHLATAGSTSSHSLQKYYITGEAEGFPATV

[3] = DRUGMATRIX: ATPase, Na+/K+ enzyme inhibition (substrate: ATP); assay type: tissue-based, Sus scrofa, Heart; settings: Not Active = under 50% inhibition at 10 µM
Acetylcholinesterase = Acetylcholinesterase (Homo sapiens, UniProt P22303); assay: DRUGMATRIX: Acetylcholinesterase enzyme inhibition (substrate: acetylthiocholine); assay type: cell-based, HEK293; settings: Not Active = under 50% inhibition at 10 µM
Acetylcholinesterase, sequence (P22303 whole entry): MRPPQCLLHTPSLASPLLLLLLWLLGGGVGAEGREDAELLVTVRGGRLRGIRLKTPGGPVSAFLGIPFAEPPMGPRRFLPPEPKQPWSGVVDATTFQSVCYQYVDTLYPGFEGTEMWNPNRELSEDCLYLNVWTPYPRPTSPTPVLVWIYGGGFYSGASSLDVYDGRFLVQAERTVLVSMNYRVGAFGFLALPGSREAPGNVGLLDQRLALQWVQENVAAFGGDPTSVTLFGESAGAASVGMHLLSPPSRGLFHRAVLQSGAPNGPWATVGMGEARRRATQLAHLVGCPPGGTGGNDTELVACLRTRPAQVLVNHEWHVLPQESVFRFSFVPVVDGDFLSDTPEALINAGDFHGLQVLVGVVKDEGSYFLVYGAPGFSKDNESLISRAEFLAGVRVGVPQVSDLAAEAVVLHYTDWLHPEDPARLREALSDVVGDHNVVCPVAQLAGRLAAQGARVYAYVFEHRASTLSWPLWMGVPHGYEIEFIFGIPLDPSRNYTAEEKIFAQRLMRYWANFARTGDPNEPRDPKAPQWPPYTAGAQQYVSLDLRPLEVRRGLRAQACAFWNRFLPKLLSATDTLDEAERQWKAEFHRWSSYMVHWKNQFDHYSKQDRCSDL

[4] = DRUGMATRIX: Nicotinic Acetylcholine radioligand binding (ligand: [125I] Epibatidine); assay type: cell membranes, Membrane; settings: imr-32; Not Active = under 50% inhibition at 10 µM

CC(C)CN(C[C@@H](O)[C@H](Cc1ccccc1)NC(=O)O[C@H]1CCOC1)S(=O)(=O)c1ccc(N)cc1
Not Active: IC50 [1] | Ki [1] | IC50 (Cytochrome P450 1A2) | Ki (Cytochrome P450 1A2) | IC50 [2] | Ki [2] | IC50 (Adenosine receptor A1) | IC50 (Vasopressin V1a receptor) | IC50 (Estrogen receptor) | IC50 [3] | Ki [3] | IC50 (Acetylcholinesterase; hek293) | IC50 [4] | Ki [4]

c1ccc(Nc2ccc(Nc3ccccc3)cc2)cc1
Not Active: IC50 [1] | Ki [1] | IC50 (Cytochrome P450 1A2) | Ki (Cytochrome P450 1A2) | IC50 [2] | Ki [2] | IC50 (Adenosine receptor A1) | IC50 (Vasopressin V1a receptor) | IC50 (Estrogen receptor) | IC50 [3] | Ki [3] | IC50 (Acetylcholinesterase; hek293) | IC50 [4] | Ki [4]

NC(=O)N1c2ccccc2CCc2ccccc21
Not Active: IC50 [1] | Ki [1] | IC50 (Cytochrome P450 1A2) | Ki (Cytochrome P450 1A2) | IC50 [2] | Ki [2] | IC50 (Adenosine receptor A1) | IC50 (Vasopressin V1a receptor) | IC50 (Estrogen receptor) | IC50 [3] | Ki [3] | IC50 (Acetylcholinesterase; hek293) | IC50 [4] | Ki [4]

Cc1onc(O)c1CC(N)C(=O)O (racemic) [(R,S)-AMPA]
Not Active: IC50 [1] | Ki [1] | IC50 (Cytochrome P450 1A2) | Ki (Cytochrome P450 1A2) | IC50 [2] | Ki [2] | IC50 (Adenosine receptor A1) | IC50 (Vasopressin V1a receptor) | IC50 (Estrogen receptor) | IC50 [3] | Ki [3] | IC50 (Acetylcholinesterase; hek293) | IC50 [4] | Ki [4]

Cc1ccc2cc3c(ccc4ccccc43)c3c2c1CC3 [3-METHYLCHOLANTHRENE]
22.7 µM: IC50 (Acetylcholinesterase; read-out: IC50)
Not Active: IC50 [1] | Ki [1] | IC50 [2] | Ki [2] | IC50 (Adenosine receptor A1) | IC50 (Vasopressin V1a receptor) | IC50 (Estrogen receptor) | IC50 [3] | Ki [3] | IC50 [4] | Ki [4]

CC[C@@]1(O)C[C@H](O[C@H]2C[C@H](N(C)C)[C@H](O[C@H]3C[C@H](O)[C@H](O[C@H]4CCC(=O)[C@H](C)O4)[C@H](C)O3)[C@H](C)O2)c2c(cc3c(c2O)C(=O)c2c(O)cccc2C3=O)[C@H]1C(=O)OC [ACLARUBICIN]
Not Active: IC50 [1] | Ki [1] | IC50 (Cytochrome P450 1A2) | Ki (Cytochrome P450 1A2) | IC50 [2] | Ki [2] | IC50 (Adenosine receptor A1) | IC50 (Vasopressin V1a receptor) | IC50 (Estrogen receptor) | IC50 [3] | Ki [3] | IC50 (Acetylcholinesterase; hek293) | IC50 [4] | Ki [4]

Nc1nc2c(ncn2COCCO)c(=O)[nH]1 [ACYCLOVIR]
Not Active: IC50 [1] | Ki [1] | IC50 (Cytochrome P450 1A2) | Ki (Cytochrome P450 1A2) | IC50 [2] | Ki [2] | IC50 (Adenosine receptor A1) | IC50 (Vasopressin V1a receptor) | IC50 (Estrogen receptor) | IC50 [3] | Ki [3] | IC50 (Acetylcholinesterase; hek293) | IC50 [4] | Ki [4]

Cc1c(C)c2c(c(C)c1O)CC[C@@](C)(CCC[C@H](C)CCC[C@H](C)CCCC(C)C)O2 [ALPHA-TOCOPHEROL]
Not Active: IC50 [1] | Ki [1] | IC50 (Cytochrome P450 1A2) | Ki (Cytochrome P450 1A2) | IC50 [2] | Ki [2] | IC50 (Adenosine receptor A1) | IC50 (Vasopressin V1a receptor) | IC50 (Estrogen receptor) | IC50 [3] | Ki [3] | IC50 (Acetylcholinesterase; hek293) | IC50 [4] | Ki [4]

Nc1c(Br)cc(Br)cc1CN[C@H]1CC[C@H](O)CC1 [AMBROXOL]
Not Active: IC50 [1] | Ki [1] | IC50 [2] | Ki [2] | IC50 (Adenosine receptor A1) | IC50 (Vasopressin V1a receptor) | IC50 (Estrogen receptor) | IC50 [3] | Ki [3] | IC50 (Acetylcholinesterase; hek293) | IC50 [4] | Ki [4]

c1ccc2c(c1)c1cccc3ccc4cccc2c4c31 [BENZO[E]PYRENE]
Not Active: IC50 [1] | Ki [1] | IC50 [2] | Ki [2] | IC50 (Adenosine receptor A1) | IC50 (Vasopressin V1a receptor) | IC50 (Estrogen receptor) | IC50 [3] | Ki [3] | IC50 (Acetylcholinesterase; hek293) | IC50 [4] | Ki [4]

N=C(N)NCCN1CCCCCCC1 [GUANETHIDINE]
Not Active: IC50 [1] | Ki [1] | IC50 [2] | Ki [2] | IC50 (Adenosine receptor A1) | IC50 (Vasopressin V1a receptor) | IC50 (Estrogen receptor) | IC50 [3] | Ki [3] | IC50 (Acetylcholinesterase; hek293) | IC50 [4] | Ki [4]

CCCCc1nc(Cl)c(CO)n1Cc1ccc(-c2ccccc2-c2nnn[nH]2)cc1 [LOSARTAN]
Not Active: IC50 [1] | Ki [1] | IC50 (Cytochrome P450 1A2) | Ki (Cytochrome P450 1A2) | IC50 [2] | Ki [2] | IC50 (Adenosine receptor A1) | IC50 (Vasopressin V1a receptor) | IC50 [3] | Ki [3] | IC50 (Acetylcholinesterase; hek293) | IC50 [4] | Ki [4]

C[C@](N)(Cc1ccc(O)c(O)c1)C(=O)O [METHYLDOPA]
Not Active: IC50 [1] | Ki [1] | IC50 (Cytochrome P450 1A2) | Ki (Cytochrome P450 1A2) | IC50 [2] | Ki [2] | IC50 (Adenosine receptor A1) | IC50 (Vasopressin V1a receptor) | IC50 [3] | Ki [3] | IC50 (Acetylcholinesterase; hek293) | IC50 [4] | Ki [4]

Cc1ccccc1N1C(=O)c2cc(S(N)(=O)=O)c(Cl)cc2NC1C (stereo unspecified) [METOLAZONE]
Not Active: IC50 [1] | Ki [1] | IC50 (Cytochrome P450 1A2) | Ki (Cytochrome P450 1A2) | IC50 [2] | Ki [2] | IC50 (Adenosine receptor A1) | IC50 (Vasopressin V1a receptor) | IC50 [3] | Ki [3] | IC50 (Acetylcholinesterase; hek293) | IC50 [4] | Ki [4]

COCCc1ccc(OCC(O)CNC(C)C)cc1 (stereo unspecified) [METOPROLOL]
Not Active: IC50 [1] | Ki [1] | IC50 (Cytochrome P450 1A2) | Ki (Cytochrome P450 1A2) | IC50 [2] | Ki [2] | IC50 (Adenosine receptor A1) | IC50 (Vasopressin V1a receptor) | IC50 [3] | Ki [3] | IC50 (Acetylcholinesterase; hek293) | IC50 [4] | Ki [4]

NC1=NC(=O)C(c2ccccc2)O1 (stereo unspecified) [PEMOLINE]
Not Active: IC50 [1] | Ki [1] | IC50 (Cytochrome P450 1A2) | Ki (Cytochrome P450 1A2) | IC50 [2] | Ki [2] | IC50 (Adenosine receptor A1) | IC50 (Vasopressin V1a receptor) | IC50 [3] | Ki [3] | IC50 (Acetylcholinesterase; hek293) | IC50 [4] | Ki [4]

CC1(C)S[C@@H]2[C@H](NC(=O)Cc3ccccc3)C(=O)N2[C@H]1C(=O)O [PENICILLIN G]
Not Active: IC50 [1] | Ki [1] | IC50 [2] | Ki [2] | IC50 (Adenosine receptor A1) | IC50 (Vasopressin V1a receptor) | IC50 (Estrogen receptor) | IC50 [3] | Ki [3] | IC50 (Acetylcholinesterase; hek293) | IC50 [4] | Ki [4]

CNNCc1ccc(C(=O)NC(C)C)cc1 [PROCARBAZINE]
Not Active: IC50 [1] | Ki [1] | IC50 (Cytochrome P450 1A2) | Ki (Cytochrome P450 1A2) | IC50 [2] | Ki [2] | IC50 (Adenosine receptor A1) | IC50 (Vasopressin V1a receptor) | IC50 [3] | Ki [3] | IC50 (Acetylcholinesterase; hek293) | IC50 [4] | Ki [4]
